Assays:
[1] = target: T1, Phosphatidylinositol 4,5-bisphosphate 3-kinase catalytic subunit gamma isoform (Homo sapiens, UniProt P48736)
Description: Inhibition of recombinant N-terminal His-tagged full-length human PI3K p120gamma expressed in Sf9 insect cells using phosphatidylinositol 4,5-bisphosphate as substrate preincubated for 60 mins followed by substrate addition and measured after 1 hr in presence of ATP by ADP-Glo lipid kinase assay

[2] = target: PI3-kinase p110-delta/p85-alpha (Homo sapiens, UniProt O00329)
Description: Inhibition of recombinant N-terminal GST-tagged full-length human PI3K p110delta/p85alpha co- expressed in Sf9 insect cells using phosphatidylinositol 4,5-bisphosphate as substrate preincubated for 60 mins followed by substrate addition and measured after 1 hr in presence of ATP by ADP-Glo lipid kinase assay

[3] = target: PI3-kinase p110-alpha/p85-alpha (Homo sapiens, UniProt P42336)
Description: Inhibition of recombinant N-terminal FLAG-tagged full-length human PI3K p110alpha/human p85alpha co- expressed in Sf9 insect cells using phosphatidylinositol 4,5-bisphosphate as substrate preincubated for 60 mins followed by substrate addition and measured after 1 hr in presence of ATP by ADP-Glo lipid kinase assay

[4] = target: T1, Phosphatidylinositol 4,5-bisphosphate 3-kinase catalytic subunit gamma isoform; remark: listed apart in the source
Description: Inhibition of PI3Kgamma in human THP-1 cells assessed as reduction in Akt phosphorylation at S473 residue incubated for 60 mins by alphalisa assay

Homo sapiens = species on record: Homo sapiens; test: Selectivity index, ratio of IC50 for N-terminal FLAG-tagged full-length human PI3K p110beta/human p85alpha to IC50 for recombinant N-terminal His-tagged full-length human PI3K p120gamma
PI3K p110 beta/p85 alpha = PI3K p110 beta/p85 alpha (Homo sapiens, UniProt P42338)
PI3K p110 beta/p85 alpha, sequence (P27986 whole entry): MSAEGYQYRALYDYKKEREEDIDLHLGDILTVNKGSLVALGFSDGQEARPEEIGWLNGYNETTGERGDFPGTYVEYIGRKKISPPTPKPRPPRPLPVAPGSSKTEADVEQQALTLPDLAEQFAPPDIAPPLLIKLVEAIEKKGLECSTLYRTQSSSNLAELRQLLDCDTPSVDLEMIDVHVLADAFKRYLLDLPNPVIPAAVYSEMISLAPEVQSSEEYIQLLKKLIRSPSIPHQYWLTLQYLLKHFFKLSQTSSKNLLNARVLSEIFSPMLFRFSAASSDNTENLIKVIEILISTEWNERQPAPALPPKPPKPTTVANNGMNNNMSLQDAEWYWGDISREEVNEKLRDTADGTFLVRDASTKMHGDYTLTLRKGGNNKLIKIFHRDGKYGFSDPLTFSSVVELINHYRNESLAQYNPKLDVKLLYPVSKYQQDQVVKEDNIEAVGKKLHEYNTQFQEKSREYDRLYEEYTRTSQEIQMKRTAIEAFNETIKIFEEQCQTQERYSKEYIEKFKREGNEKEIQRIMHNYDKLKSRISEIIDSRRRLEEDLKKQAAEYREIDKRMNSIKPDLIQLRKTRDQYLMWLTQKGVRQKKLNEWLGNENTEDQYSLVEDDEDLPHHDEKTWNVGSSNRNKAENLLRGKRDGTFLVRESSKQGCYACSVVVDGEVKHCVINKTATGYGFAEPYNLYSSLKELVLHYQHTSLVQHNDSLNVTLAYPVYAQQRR
PI3K p110 beta/p85 alpha, sequence (P42338 whole entry): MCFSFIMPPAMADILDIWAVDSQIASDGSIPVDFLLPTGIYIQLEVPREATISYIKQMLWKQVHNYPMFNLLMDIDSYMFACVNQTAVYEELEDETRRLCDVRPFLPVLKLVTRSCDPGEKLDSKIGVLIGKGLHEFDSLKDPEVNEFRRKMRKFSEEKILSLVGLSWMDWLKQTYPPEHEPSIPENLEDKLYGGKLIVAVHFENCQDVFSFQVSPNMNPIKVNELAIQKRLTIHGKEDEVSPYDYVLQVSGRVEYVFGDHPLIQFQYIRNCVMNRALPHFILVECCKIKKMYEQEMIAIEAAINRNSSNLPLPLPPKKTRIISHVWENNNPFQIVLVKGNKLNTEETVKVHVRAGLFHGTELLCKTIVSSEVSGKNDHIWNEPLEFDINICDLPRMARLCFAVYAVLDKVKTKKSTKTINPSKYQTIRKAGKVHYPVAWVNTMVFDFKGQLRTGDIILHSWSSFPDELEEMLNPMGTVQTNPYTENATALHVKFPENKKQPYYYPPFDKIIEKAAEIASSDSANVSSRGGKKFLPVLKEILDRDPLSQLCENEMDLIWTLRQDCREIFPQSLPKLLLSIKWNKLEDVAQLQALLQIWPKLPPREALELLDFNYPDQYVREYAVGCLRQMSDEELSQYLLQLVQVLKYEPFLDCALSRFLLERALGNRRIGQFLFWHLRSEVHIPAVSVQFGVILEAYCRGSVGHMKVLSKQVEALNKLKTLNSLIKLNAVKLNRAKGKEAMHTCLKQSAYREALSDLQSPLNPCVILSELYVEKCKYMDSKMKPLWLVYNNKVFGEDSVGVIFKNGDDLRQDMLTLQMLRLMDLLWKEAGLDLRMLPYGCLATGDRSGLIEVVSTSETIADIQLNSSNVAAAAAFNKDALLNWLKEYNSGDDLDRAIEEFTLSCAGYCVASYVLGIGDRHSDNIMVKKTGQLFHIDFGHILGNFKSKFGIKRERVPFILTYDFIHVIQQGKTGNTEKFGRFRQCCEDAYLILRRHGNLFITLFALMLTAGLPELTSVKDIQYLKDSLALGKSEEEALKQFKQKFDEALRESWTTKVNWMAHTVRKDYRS
Description: Inhibition of recombinant N-terminal FLAG-tagged full-length human PI3K p110beta/human p85alpha co- expressed in Sf9 insect cells using phosphatidylinositol 4,5-bisphosphate as substrate preincubated for 60 mins followed by substrate addition and measured after 1 hr in presence of ATP by ADP-Glo lipid kinase assay

[5] = Volume of distribution at steady state in Sprague-Dawley rat at 0.25 mg/kg, iv by LC-MS/MS analysis; assay type: ADME, organism-based; details: in vivo, read-out: Vdss
[6] = Clearance in Sprague-Dawley rat at 0.25 mg/kg, iv by LC-MS/MS analysis; assay type: ADME, organism-based; details: in vivo
[7] = Intrinsic clearance rat hepatocytes assessed per 10^6 cells by LC-MS/MS analysis; assay type: ADME, tissue-based, Hepatocyte; details: read-out: CLH
[8] = Intrinsic clearance in human hepatocytes assessed per 10^6 cells at 0.5 uM by LC-MS/MS analysis; assay type: ADME, cell-based, Hepatocyte; details: read-out: CLH
CYP3A4 = CYP3A4 (Homo sapiens, UniProt P08684); test: in vitro; details: liver microsomes, probe midazolam

T1 sequence (P48736 whole entry, canonical isoform): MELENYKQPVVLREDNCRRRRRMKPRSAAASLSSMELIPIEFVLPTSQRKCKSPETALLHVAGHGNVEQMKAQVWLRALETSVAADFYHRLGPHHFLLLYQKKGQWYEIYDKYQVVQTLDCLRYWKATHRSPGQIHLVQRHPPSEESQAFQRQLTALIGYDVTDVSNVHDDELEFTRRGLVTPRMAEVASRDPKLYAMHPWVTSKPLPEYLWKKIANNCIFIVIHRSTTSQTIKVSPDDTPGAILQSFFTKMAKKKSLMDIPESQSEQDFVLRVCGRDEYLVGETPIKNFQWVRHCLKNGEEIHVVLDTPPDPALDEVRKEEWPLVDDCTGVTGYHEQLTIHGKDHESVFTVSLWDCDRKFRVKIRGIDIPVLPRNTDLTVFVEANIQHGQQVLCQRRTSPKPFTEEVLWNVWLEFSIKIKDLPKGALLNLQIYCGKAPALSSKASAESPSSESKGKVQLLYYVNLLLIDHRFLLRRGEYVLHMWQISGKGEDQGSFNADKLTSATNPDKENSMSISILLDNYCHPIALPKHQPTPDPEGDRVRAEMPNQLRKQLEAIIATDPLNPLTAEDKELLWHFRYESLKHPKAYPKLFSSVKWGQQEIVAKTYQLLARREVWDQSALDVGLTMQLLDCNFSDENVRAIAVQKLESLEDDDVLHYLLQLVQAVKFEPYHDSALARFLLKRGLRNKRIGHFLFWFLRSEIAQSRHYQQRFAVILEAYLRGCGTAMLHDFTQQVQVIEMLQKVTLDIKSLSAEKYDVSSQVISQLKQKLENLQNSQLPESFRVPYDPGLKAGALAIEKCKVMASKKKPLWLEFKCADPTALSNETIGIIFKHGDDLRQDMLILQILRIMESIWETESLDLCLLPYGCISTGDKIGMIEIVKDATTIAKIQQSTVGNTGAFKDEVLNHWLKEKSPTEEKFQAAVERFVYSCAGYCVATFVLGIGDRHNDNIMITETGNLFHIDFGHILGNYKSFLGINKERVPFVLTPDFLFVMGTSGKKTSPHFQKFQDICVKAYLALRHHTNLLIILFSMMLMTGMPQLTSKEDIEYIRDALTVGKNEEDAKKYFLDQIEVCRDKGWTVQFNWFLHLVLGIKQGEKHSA
PI3-kinase p110-delta/p85-alpha, sequence (P27986 whole entry): as the sequence (P27986 whole entry) above
PI3-kinase p110-delta/p85-alpha, sequence (O00329 whole entry): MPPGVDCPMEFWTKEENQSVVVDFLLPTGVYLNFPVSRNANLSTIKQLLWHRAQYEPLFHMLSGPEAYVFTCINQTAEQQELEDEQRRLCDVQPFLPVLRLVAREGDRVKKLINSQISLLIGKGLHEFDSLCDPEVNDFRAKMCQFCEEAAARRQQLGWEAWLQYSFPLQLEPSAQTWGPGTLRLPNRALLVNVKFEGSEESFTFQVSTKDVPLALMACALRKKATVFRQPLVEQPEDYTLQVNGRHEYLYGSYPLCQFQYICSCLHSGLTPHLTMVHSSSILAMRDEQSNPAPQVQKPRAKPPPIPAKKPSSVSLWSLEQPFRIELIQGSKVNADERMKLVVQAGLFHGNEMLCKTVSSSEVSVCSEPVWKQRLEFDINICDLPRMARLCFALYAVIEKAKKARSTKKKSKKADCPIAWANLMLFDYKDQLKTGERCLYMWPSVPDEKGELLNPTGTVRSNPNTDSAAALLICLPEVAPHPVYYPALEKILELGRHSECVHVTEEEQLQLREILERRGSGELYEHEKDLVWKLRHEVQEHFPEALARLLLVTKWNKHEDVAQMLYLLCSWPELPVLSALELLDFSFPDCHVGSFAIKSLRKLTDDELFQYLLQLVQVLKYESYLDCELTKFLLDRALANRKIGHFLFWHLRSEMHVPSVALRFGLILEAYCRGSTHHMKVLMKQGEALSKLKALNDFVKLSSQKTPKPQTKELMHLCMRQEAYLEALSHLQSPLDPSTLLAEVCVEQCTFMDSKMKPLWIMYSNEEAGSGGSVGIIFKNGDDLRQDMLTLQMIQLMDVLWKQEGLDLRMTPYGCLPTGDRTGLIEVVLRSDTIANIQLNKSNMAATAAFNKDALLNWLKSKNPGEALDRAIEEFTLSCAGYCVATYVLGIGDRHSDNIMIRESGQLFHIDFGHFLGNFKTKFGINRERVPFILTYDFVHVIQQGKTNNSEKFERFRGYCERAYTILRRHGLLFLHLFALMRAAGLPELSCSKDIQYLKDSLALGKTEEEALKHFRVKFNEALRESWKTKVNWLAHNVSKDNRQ
PI3-kinase p110-alpha/p85-alpha, sequence (P27986 whole entry, canonical isoform): as the sequence (P27986 whole entry) above
PI3-kinase p110-alpha/p85-alpha, sequence (P42336 whole entry, canonical isoform): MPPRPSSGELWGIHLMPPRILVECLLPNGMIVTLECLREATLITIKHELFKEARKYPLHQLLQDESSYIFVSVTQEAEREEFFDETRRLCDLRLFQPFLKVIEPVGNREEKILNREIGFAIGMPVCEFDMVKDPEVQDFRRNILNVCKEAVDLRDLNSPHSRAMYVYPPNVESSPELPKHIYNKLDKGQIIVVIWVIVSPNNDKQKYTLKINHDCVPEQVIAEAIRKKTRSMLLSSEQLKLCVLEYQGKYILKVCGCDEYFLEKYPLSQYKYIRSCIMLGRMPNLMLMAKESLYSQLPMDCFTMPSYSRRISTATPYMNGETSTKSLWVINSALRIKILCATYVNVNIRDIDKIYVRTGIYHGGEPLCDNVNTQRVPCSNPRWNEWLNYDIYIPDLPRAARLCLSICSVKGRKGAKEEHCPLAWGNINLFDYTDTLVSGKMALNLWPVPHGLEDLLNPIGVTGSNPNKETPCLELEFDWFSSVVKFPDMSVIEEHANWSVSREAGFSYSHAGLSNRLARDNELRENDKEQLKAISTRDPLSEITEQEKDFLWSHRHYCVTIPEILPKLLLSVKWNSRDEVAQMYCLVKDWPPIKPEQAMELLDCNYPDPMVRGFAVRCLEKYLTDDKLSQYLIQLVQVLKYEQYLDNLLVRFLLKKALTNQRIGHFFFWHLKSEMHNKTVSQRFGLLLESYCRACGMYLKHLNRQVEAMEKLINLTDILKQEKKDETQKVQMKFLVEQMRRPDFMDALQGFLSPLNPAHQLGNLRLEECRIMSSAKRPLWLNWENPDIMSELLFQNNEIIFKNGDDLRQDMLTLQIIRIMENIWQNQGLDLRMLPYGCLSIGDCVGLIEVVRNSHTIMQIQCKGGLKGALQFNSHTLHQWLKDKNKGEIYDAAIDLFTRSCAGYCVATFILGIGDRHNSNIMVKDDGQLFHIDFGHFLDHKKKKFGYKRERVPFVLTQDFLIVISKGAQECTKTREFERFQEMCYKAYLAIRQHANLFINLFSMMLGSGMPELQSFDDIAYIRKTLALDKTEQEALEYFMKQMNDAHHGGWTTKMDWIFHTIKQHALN

Compound	IC50 [1]	IC50 [2]	IC50 [3]	IC50 [4]	Ratio IC50 (Homo sapiens)	IC50 (PI3K p110 beta/p85 alpha)	Vd [5]	clearance [6]	hepatocyte CLint [7]	hepatocyte CLint at 0.5 µM [8]	inhibition at 10 µM (CYP3A4)
Cc1cc(-c2ccn3nc(N)cc3n2)cc2c1C(=O)N([C@@H](C)C1CC1)C2	60 nM	> 10000 nM	> 10000 nM	4200 nM	–	–	–	–	–	–	–
Cc1ncc(-c2c(N)nn3ccc(-c4cc(C)c5c(c4)CN([C@@H](C)C4CC4)C5=O)nc23)o1	5.9 nM	3250 nM	2260 nM	230 nM	–	–	–	–	–	–	–
Cc1cc(-c2ccn3nc(N)c(-c4cnn(CCO)c4)c3n2)cc2c1C(=O)N([C@@H](C)C1CC1)C2	6.4 nM	1160 nM	1160 nM	400 nM	–	–	–	–	–	–	–
Cc1nn(C)cc1-c1c(N)nn2ccc(-c3cc4c(c(C(F)(F)F)c3)C(=O)N([C@@H](C)C3CC3)C4)nc12	8 nM	4550 nM	> 10000 nM	470 nM	–	–	–	–	–	–	–
Cc1cc(-c2ccc3ncc(-c4cnn(C)c4)n3n2)cc2c1C(=O)N([C@@H](C)C1CC1)C2	15 nM	2380 nM	> 10000 nM	440 nM	–	–	–	–	–	–	–
Cc1cc(-c2ccc3nc(N)cn3n2)cc2c1C(=O)N([C@@H](C)C1CC1)C2 (racemic)	425 nM	> 10000 nM	> 10000 nM	1500 nM	> 24	> 10000 nM	–	–	–	–	–
CC(=O)Nc1cc2nc(-c3cc(C)c4c(c3)CN([C@@H](C)C3CC3)C4=O)ccn2n1	4.4 nM	> 10000 nM	> 10000 nM	240 nM	–	–	–	–	–	–	–
Cc1cc(-c2ccc3nc(NS(C)(=O)=O)cn3n2)cc2c1C(=O)N([C@@H](C)C1CC1)C2	5300 nM	> 10000 nM	> 10000 nM	> 30000 nM	–	–	–	–	–	–	–
Cc1cc(-c2ccc3nc(N)c(-c4cnn(C)c4)n3n2)cc2c1C(=O)N([C@@H](C)C1CC1)C2	17 nM	> 10000 nM	> 10000 nM	490 nM	–	–	–	–	–	–	–
C[C@@H](C1CC1)N1Cc2cc(-c3ccn4nc(N)c(-c5cnn(C)c5)c4n3)cc(C(F)(F)F)c2C1=O	1.9 nM	1310 nM	1940 nM	64 nM	–	> 15000 nM	1.2 L/kg	13 mL/min/kg	7.4 µL/min/1e6 cells	3.3 µL/min/1e6 cells	–
COCC(=O)Nc1cn2nc(-c3cc(C)c4c(c3)CN([C@@H](C)C3CC3)C4=O)ccc2n1	14 nM	> 10000 nM	> 10000 nM	690 nM	–	–	–	–	–	–	–
Cc1cc(-c2ccn3nc(N)c(-c4ccncn4)c3n2)cc2c1C(=O)N([C@@H](C)C1CC1)C2	7.5 nM	2200 nM	2730 nM	550 nM	–	–	–	–	–	–	–
Cc1cc(-c2ccn3nc(N)c(-c4ccccn4)c3n2)cc2c1C(=O)N([C@@H](C)C1CC1)C2	64 nM	> 10000 nM	> 10000 nM	2300 nM	–	–	–	–	–	–	–
CC(=O)Nc1nc2ccc(-c3cc(C)c4c(c3)CN([C@@H](C)C3CC3)C4=O)cn2n1 (racemic)	76 nM	> 10000 nM	> 10000 nM	3000 nM	> 131	> 10000 nM	–	–	–	–	–
Cc1cc(-c2ccc3nc(NC(=O)C(C)C)cn3n2)cc2c1C(=O)N([C@@H](C)C1CC1)C2	70 nM	> 10000 nM	> 10000 nM	9400 nM	–	–	–	–	–	–	–
CC(=O)Nc1nc2cc(-c3cc(C)c4c(c3)CN([C@@H](C)C3CC3)C4=O)ccc2[nH]1 (racemic)	482 nM	> 10000 nM	> 10000 nM	1000 nM	> 21	> 10000 nM	–	–	–	–	–
Cc1cc(-c2ccc3nc(NC(=O)N4CCC[C@H]4C(N)=O)cn3n2)cc2c1C(=O)N([C@@H](C)C1CC1)C2	2.9 nM	8210 nM	2470 nM	460 nM	–	–	–	–	–	–	–
CC(=O)Nc1nn2ccc(-c3cc(C)c4c(c3)CN([C@@H](C)C3CC3)C4=O)nc2c1-c1cnn(C)c1	429 nM	> 10000 nM	> 10000 nM	1500 nM	–	–	–	–	–	–	–

Compound	IC50 [1]	IC50 [2]	IC50 [3]	IC50 [4]	Ratio IC50 (Homo sapiens)	IC50 (PI3K p110 beta/p85 alpha)	Vd [5]	clearance [6]	hepatocyte CLint [7]	hepatocyte CLint at 0.5 µM [8]	inhibition at 10 µM (CYP3A4)
Cc1cc(-c2ccc3[nH]c(N)nc3c2)cc2c1C(=O)N([C@@H](C)C1CC1)C2 (racemic)	> 10000 nM	> 10000 nM	> 10000 nM	–	–	> 10000 nM	–	–	–	–	–
Cc1cc(-c2ccn3nc(N)c(-c4ccc(CC(=O)O)cc4)c3n2)cc2c1C(=O)N([C@@H](C)C1CC1)C2	2.1 nM	4660 nM	5450 nM	870 nM	–	–	–	–	–	–	–
Cc1cc(-c2ccn3nc(N)c(-c4nc[nH]n4)c3n2)cc2c1C(=O)N([C@@H](C)C1CC1)C2	31 nM	6050 nM	6290 nM	630 nM	–	–	–	–	–	–	–
Cc1cc(-c2ccn3nc(N)nc3c2)cc2c1C(=O)N([C@@H](C)C1CC1)C2	50 nM	> 10000 nM	> 10000 nM	3100 nM	> 200	> 10000 nM	–	–	–	–	–
CC(=O)Nc1cc2nc(-c3cc4c(c(C(F)(F)F)c3)C(=O)N([C@@H](C)C3CC3)C4)ccn2n1	2.2 nM	2610 nM	8340 nM	150 nM	–	–	–	–	< 1.2 µL/min/1e6 cells	2.4 µL/min/1e6 cells	–
Cc1cc(-c2c(N)nn3ccc(-c4cc(C)c5c(c4)CN([C@@H](C)C4CC4)C5=O)nc23)ccc1C(=O)O	2.2 nM	210 nM	96 nM	210 nM	–	–	–	–	–	–	–
C[C@@H](C1CC1)N1Cc2cc(-c3ccn4nc(N)c(-c5ncccn5)c4n3)cc(C(F)(F)F)c2C1=O	53 nM	> 10000 nM	> 10000 nM	800 nM	–	–	–	–	–	–	–
CNS(=O)(=O)c1cc(-c2ccn3nc(NC(C)=O)cc3n2)cc2c1C(=O)N([C@@H](C)C1CC1)C2	2.7 nM	4550 nM	9850 nM	240 nM	–	–	–	–	–	–	–
CCC(=O)Nc1cn2nc(-c3cc(C)c4c(c3)CN([C@@H](C)C3CC3)C4=O)ccc2n1	7.3 nM	> 10000 nM	> 10000 nM	830 nM	–	–	–	–	–	–	–
Cc1cc(-c2ccc3nc(N)nn3c2)cc2c1C(=O)N([C@@H](C)C1CC1)C2 (racemic)	291 nM	> 10000 nM	> 10000 nM	15000 nM	> 34	> 10000 nM	–	–	–	–	–
Cc1cc(-c2ccn3ncc(-c4cnn(C)c4)c3n2)cc2c1C(=O)N([C@@H](C)C1CC1)C2	9.1 nM	3440 nM	4140 nM	300 nM	–	–	–	–	–	–	–
Cc1cc(-c2ccc3nc(NC(=O)c4ccccc4)cn3n2)cc2c1C(=O)N([C@@H](C)C1CC1)C2	93 nM	> 10000 nM	> 10000 nM	12000 nM	–	–	–	–	–	–	–
CC(C)c1cc(-c2c(N)nn3ccc(-c4cc5c(c(C(F)(F)F)c4)C(=O)N([C@@H](C)C4CC4)C5)nc23)ccc1C(=O)O	1 nM	125 nM	82.4 nM	76 nM	10100	10100 nM	–	–	–	–	–
CC(=O)Nc1cc2nc(-c3cc4c(c(NS(C)(=O)=O)c3)C(=O)N([C@@H](C)C3CC3)C4)ccn2n1	1.3 nM	6140 nM	8970 nM	160 nM	–	–	–	–	–	–	–
Cc1c(-c2c(N)nn3ccc(-c4cc5c(c(C(F)(F)F)c4)C(=O)N([C@@H](C)C4CC4)C5)nc23)cnn1C	6.6 nM	2240 nM	1510 nM	440 nM	–	–	–	–	–	–	–
Cc1cc(-c2ccn3nc(N)c(-c4ccn[nH]4)c3n2)cc2c1C(=O)N([C@@H](C)C1CC1)C2	44 nM	2690 nM	1980 nM	620 nM	–	–	–	–	–	–	–
CC(C)c1cc(-c2cnn3ccc(-c4cc5c(c(C(F)(F)F)c4)C(=O)N([C@@H](C)C4CC4)C5)nc23)ccc1C(=O)O	2.1 nM	459 nM	194 nM	74 nM	5520	11600 nM	25 L/kg	86.7 mL/min/kg	1.7 µL/min/1e6 cells	< 1.2 µL/min/1e6 cells	13%
CC(=O)Nc1cn2nc(-c3cc(C)c4c(c3)CN([C@@H](C)C3CC3)C4=O)ccc2n1	5.5 nM	> 10000 nM	> 10000 nM	450 nM	> 1820	> 10000 nM	–	–	–	–	–

From ChEMBL document CHEMBL4665778, “Discovery of Potent and Selective PI3Kγ Inhibitors” (J Med Chem, 2020)
